{"source": "PubChem BioAssay AID272", "about": "(DTP/NCI, 2004)", "test_system": "Lewis lung carcinoma i.m., BDF1 mice, T/C %", "assay": "NCI In Vivo Anticancer Drug Screen. Data for tumor model Lewis Lung Carcinoma (intramuscular) in B6D2F1 (BDF1) mice", "protocol": "The antitumor activity of compounds was measured in mice bearing transplantable tumors. Survival or tumor size were measured and the results are expressed as the measurement made in the treated group (T) divided by the measurement made in the vehicle treated control group (C). The tumor model used in this assay is Lewis Lung Carcinoma (intramuscular) in B6D2F1 (BDF1) mice", "key": {"[1]": {"conditions": "endpoint: median survival time, dose: 12.5 mg/kg/injection, schedule: Q01DX011 (ip), vehicle: saline with Tween-80, higher = longer survival"}, "[2]": {"conditions": "endpoint: median survival time, dose: 1.56 mg/kg/injection, schedule: Q01DX011 (ip), vehicle: other, higher = longer survival"}, "[3]": {"conditions": "endpoint: median survival time, dose: 3.12 mg/kg/injection, schedule: Q01DX011 (ip), vehicle: other, higher = longer survival"}, "[4]": {"conditions": "endpoint: median survival time, dose: 6.25 mg/kg/injection, schedule: Q01DX011 (ip), vehicle: other, higher = longer survival"}, "[5]": {"conditions": "endpoint: median survival time, dose: 12.5 mg/kg/injection, schedule: Q01DX011 (ip), vehicle: other, higher = longer survival"}}, "note": "Several values for one entry are separate records, joined by “and”; a condition that tells them apart may be missing. Equal entries are not always repeated. Inconclusive results are not listed.", "data": [{"smiles": "O=C(O)CCCc1ccc(N(CCCl)CCCl)cc1", "values": [{"measurement": "T/C", "setting": "endpoint: mean tumor weight, dose: 2.5 mg/kg/injection, schedule: Q01DX011 (ip), vehicle: carboxymethylcellulose (CMC), higher = larger tumour", "result": "92 % of control"}, {"measurement": "T/C", "setting": "endpoint: mean tumor weight, dose: 5.0 mg/kg/injection, schedule: Q01DX011 (ip), vehicle: carboxymethylcellulose (CMC), higher = larger tumour", "result": "56 % of control"}, {"measurement": "T/C", "setting": "endpoint: mean tumor weight, dose: 10.0 mg/kg/injection, schedule: Q01DX011 (ip), vehicle: carboxymethylcellulose (CMC), higher = larger tumour", "result": "56 % of control"}, {"measurement": "T/C", "setting": "endpoint: median survival time, dose: 0.5 mg/kg/injection, schedule: Q01DX011 (ip), vehicle: saline, higher = longer survival", "result": "98 % of control and 101 % of control"}, {"measurement": "T/C", "setting": "endpoint: median survival time, dose: 1.0 mg/kg/injection, schedule: Q01DX011 (ip), vehicle: saline, higher = longer survival", "result": "91 % of control and 92 % of control"}, {"measurement": "T/C", "setting": "endpoint: median survival time, dose: 2.0 mg/kg/injection, schedule: Q01DX011 (ip), vehicle: saline, higher = longer survival", "result": "92 % of control and 110 % of control"}, {"measurement": "T/C", "setting": "endpoint: median survival time, dose: 2.5 mg/kg/injection, schedule: Q01DX011 (ip), vehicle: carboxymethylcellulose (CMC), higher = longer survival", "result": "95 % of control"}, {"measurement": "T/C", "setting": "endpoint: median survival time, dose: 4.0 mg/kg/injection, schedule: Q01DX011 (ip), vehicle: saline, higher = longer survival", "result": "97 % of control and 118 % of control"}, {"measurement": "T/C", "setting": "endpoint: median survival time, dose: 5.0 mg/kg/injection, schedule: Q01DX011 (ip), vehicle: carboxymethylcellulose (CMC), higher = longer survival", "result": "122 % of control"}, {"measurement": "T/C", "setting": "endpoint: median survival time, dose: 8.0 mg/kg/injection, schedule: Q01DX011 (ip), vehicle: saline, higher = longer survival", "result": "88 % of control and 105 % of control"}, {"measurement": "T/C", "setting": "endpoint: median survival time, dose: 10.0 mg/kg/injection, schedule: Q01DX011 (ip), vehicle: carboxymethylcellulose (CMC), higher = longer survival", "result": "108 % of control"}]}, {"smiles": "O=C1C=C(SCCO)C(=O)c2ccccc21", "values": [{"measurement": "T/C", "setting": "endpoint: mean tumor weight (est.), dose: 0.75 mg/kg/injection, schedule: Q01DX011 (ip), vehicle: other, higher = larger tumour", "result": "52 % of control"}, {"measurement": "T/C", "setting": "endpoint: mean tumor weight (est.), dose: 1.5 mg/kg/injection, schedule: Q01DX011 (ip), vehicle: other, higher = larger tumour", "result": "40 % of control"}, {"measurement": "T/C", "setting": "endpoint: mean tumor weight (est.), dose: 3.0 mg/kg/injection, schedule: Q01DX011 (ip), vehicle: other, higher = larger tumour", "result": "18 % of control"}, {"measurement": "T/C", "setting": "endpoint: median survival time, dose: 0.75 mg/kg/injection, schedule: Q01DX011 (ip), vehicle: other, higher = longer survival", "result": "100 % of control"}, {"measurement": "T/C", "setting": "endpoint: median survival time, dose: 1.5 mg/kg/injection, schedule: Q01DX011 (ip), vehicle: other, higher = longer survival", "result": "92 % of control"}, {"measurement": "T/C", "setting": "endpoint: median survival time, dose: 3.0 mg/kg/injection, schedule: Q01DX011 (ip), vehicle: other, higher = longer survival", "result": "100 % of control"}]}, {"smiles": "C[C@]12CC[C@H]3[C@@H](CC[C@]4(O)C[C@@H](O)CC[C@]34C=O)[C@@]1(O)CC[C@@H]2C1=CC(=O)OC1", "values": [{"measurement": "T/C", "setting": "[1]", "result": "106 % of control"}, {"measurement": "T/C", "setting": "endpoint: median survival time, dose: 50.0 mg/kg/injection, schedule: Q01DX011 (ip), vehicle: saline with Tween-80, higher = longer survival", "result": "115 % of control"}]}, {"smiles": "CCCCn1cnc2c(=S)nc[nH]c21", "values": [{"measurement": "T/C", "setting": "endpoint: mean tumor weight, dose: 1.56 mg/kg/injection, schedule: Q01DX011 (ip), vehicle: other, higher = larger tumour", "result": "89 % of control"}, {"measurement": "T/C", "setting": "endpoint: mean tumor weight, dose: 6.25 mg/kg/injection, schedule: Q01DX011 (ip), vehicle: other, higher = larger tumour", "result": "85 % of control"}, {"measurement": "T/C", "setting": "[2]", "result": "94 % of control and 104 % of control"}, {"measurement": "T/C", "setting": "[3]", "result": "100 % of control"}, {"measurement": "T/C", "setting": "[4]", "result": "97 % of control and 108 % of control"}, {"measurement": "T/C", "setting": "[5]", "result": "110 % of control"}, {"measurement": "T/C", "setting": "endpoint: median survival time, dose: 25.0 mg/kg/injection, schedule: Q01DX011 (ip), vehicle: other, higher = longer survival", "result": "116 % of control"}]}, {"smiles": "CN1CCN(c2ccc([N+](=O)[O-])c3no[n+]([O-])c23)CC1", "values": [{"measurement": "T/C", "setting": "endpoint: median survival time, dose: 10.0 mg/kg/injection, schedule: Q02DX011 (ip), vehicle: saline with Tween-80, higher = longer survival", "result": "105 % of control"}, {"measurement": "T/C", "setting": "endpoint: median survival time, dose: 20.0 mg/kg/injection, schedule: Q02DX011 (ip), vehicle: saline with Tween-80, higher = longer survival", "result": "94 % of control"}]}, {"smiles": "O=c1[nH]c(=O)n(C2CC(O)C(CO)O2)cc1C(F)(F)F", "note": "(configuration not stated)", "values": [{"measurement": "T/C", "setting": "endpoint: median survival time, dose: 2.5 mg/kg/injection, schedule: Q01DX009 (ip), vehicle: saline, higher = longer survival", "result": "101 % of control"}, {"measurement": "T/C", "setting": "endpoint: median survival time, dose: 10.0 mg/kg/injection, schedule: Q01DX009 (ip), vehicle: saline, higher = longer survival", "result": "93 % of control"}, {"measurement": "T/C", "setting": "endpoint: median survival time, dose: 20.0 mg/kg/injection, schedule: Q01DX009 (ip), vehicle: saline, higher = longer survival", "result": "94 % of control and 101 % of control"}]}, {"smiles": "CCCCN(CC)C(=S)S[Te](SC(=S)N(CC)CCCC)(SC(=S)N(CC)CCCC)SC(=S)N(CC)CCCC", "values": [{"measurement": "T/C", "setting": "endpoint: mean tumor weight (est.), dose: 100.0 mg/kg/injection, schedule: Q01DX011 (ip), vehicle: saline with Tween-80, higher = larger tumour", "result": "72 % of control"}, {"measurement": "T/C", "setting": "endpoint: mean tumor weight (est.), dose: 200.0 mg/kg/injection, schedule: Q01DX011 (ip), vehicle: saline with Tween-80, higher = larger tumour", "result": "54 % of control"}, {"measurement": "T/C", "setting": "endpoint: mean tumor weight (est.), dose: 400.0 mg/kg/injection, schedule: Q01DX011 (ip), vehicle: saline with Tween-80, higher = larger tumour", "result": "29 % of control"}, {"measurement": "T/C", "setting": "endpoint: median survival time, dose: 100.0 mg/kg/injection, schedule: Q01DX011 (ip), vehicle: saline with Tween-80, higher = longer survival", "result": "121 % of control"}, {"measurement": "T/C", "setting": "endpoint: median survival time, dose: 200.0 mg/kg/injection, schedule: Q01DX011 (ip), vehicle: saline with Tween-80, higher = longer survival", "result": "114 % of control"}, {"measurement": "T/C", "setting": "endpoint: median survival time, dose: 400.0 mg/kg/injection, schedule: Q01DX011 (ip), vehicle: saline with Tween-80, higher = longer survival", "result": "121 % of control"}]}, {"smiles": "Nc1ncc(N)c(N)n1", "values": [{"measurement": "T/C", "setting": "endpoint: mean tumor weight (est.), dose: 40.0 mg/kg/injection, schedule: Q01DX011 (ip), vehicle: saline, higher = larger tumour", "result": "80 % of control"}, {"measurement": "T/C", "setting": "endpoint: mean tumor weight (est.), dose: 80.0 mg/kg/injection, schedule: Q01DX011 (ip), vehicle: saline, higher = larger tumour", "result": "88 % of control"}, {"measurement": "T/C", "setting": "endpoint: mean tumor weight (est.), dose: 160.0 mg/kg/injection, schedule: Q01DX011 (ip), vehicle: saline, higher = larger tumour", "result": "119 % of control"}, {"measurement": "T/C", "setting": "endpoint: median survival time, dose: 40.0 mg/kg/injection, schedule: Q01DX011 (ip), vehicle: saline, higher = longer survival", "result": "103 % of control"}, {"measurement": "T/C", "setting": "endpoint: median survival time, dose: 80.0 mg/kg/injection, schedule: Q01DX011 (ip), vehicle: saline, higher = longer survival", "result": "98 % of control"}, {"measurement": "T/C", "setting": "endpoint: median survival time, dose: 160.0 mg/kg/injection, schedule: Q01DX011 (ip), vehicle: saline, higher = longer survival", "result": "94 % of control"}]}, {"smiles": "OCC1OC(n2cnc3c(=S)nc[nH]c32)C(O)C1O", "note": "(configuration not stated)", "values": [{"measurement": "T/C", "setting": "endpoint: mean tumor weight (est.), dose: 1.56 mg/kg/injection, schedule: Q01DX011 (ip), vehicle: other, higher = larger tumour", "result": "100 % of control"}, {"measurement": "T/C", "setting": "endpoint: mean tumor weight (est.), dose: 3.12 mg/kg/injection, schedule: Q01DX011 (ip), vehicle: other, higher = larger tumour", "result": "78 % of control"}, {"measurement": "T/C", "setting": "endpoint: mean tumor weight (est.), dose: 25.0 mg/kg/injection, schedule: Q01DX011 (ip), vehicle: other, higher = larger tumour", "result": "96 % of control"}, {"measurement": "T/C", "setting": "endpoint: median survival time, dose: 0.78 mg/kg/injection, schedule: Q01DX011 (ip), vehicle: other, higher = longer survival", "result": "108 % of control"}, {"measurement": "T/C", "setting": "[2]", "result": "114 % of control and 120 % of control"}, {"measurement": "T/C", "setting": "[3]", "result": "95 % of control"}, {"measurement": "T/C", "setting": "[4]", "result": "110 % of control"}, {"measurement": "T/C", "setting": "[5]", "result": "112 % of control"}]}, {"smiles": "CC(=O)c1ccc(Oc2ccc(/C(C)=N\\N=C(N)N)cc2)cc1", "values": [{"measurement": "T/C", "setting": "endpoint: mean tumor weight (est.), dose: 12.5 mg/kg/injection, schedule: Q01DX011 (ip), vehicle: saline with Tween-80, higher = larger tumour", "result": "66 % of control"}, {"measurement": "T/C", "setting": "endpoint: mean tumor weight (est.), dose: 25.0 mg/kg/injection, schedule: Q01DX011 (ip), vehicle: saline with Tween-80, higher = larger tumour", "result": "74 % of control"}, {"measurement": "T/C", "setting": "[1]", "result": "91 % of control"}]}, {"smiles": "CS(=O)(=O)OCCCCOS(C)(=O)=O", "values": [{"measurement": "T/C", "setting": "endpoint: mean tumor weight, dose: 12.5 mg/kg/injection, schedule: Q01DX011 (ip), vehicle: Klucel (hydroxypropylcellulose) (HPC), higher = larger tumour", "result": "88 % of control"}, {"measurement": "T/C", "setting": "endpoint: mean tumor weight, dose: 25.0 mg/kg/injection, schedule: Q01DX011 (ip), vehicle: Klucel (hydroxypropylcellulose) (HPC), higher = larger tumour", "result": "109 % of control"}, {"measurement": "T/C", "setting": "endpoint: median survival time, dose: 12.5 mg/kg/injection, schedule: Q01DX011 (ip), vehicle: Klucel (hydroxypropylcellulose) (HPC), higher = longer survival", "result": "89 % of control"}]}]}
